Read-outs that look alike come from different tables or passages of the source.

For one data set, the target named is T1, UT-A3 (Mus musculus, UniProt Q8R4T9).
T1 construct: expressed in transfected cells
T1 sequence (Q8R4T9 1-461 isoform Q8R4T9-3): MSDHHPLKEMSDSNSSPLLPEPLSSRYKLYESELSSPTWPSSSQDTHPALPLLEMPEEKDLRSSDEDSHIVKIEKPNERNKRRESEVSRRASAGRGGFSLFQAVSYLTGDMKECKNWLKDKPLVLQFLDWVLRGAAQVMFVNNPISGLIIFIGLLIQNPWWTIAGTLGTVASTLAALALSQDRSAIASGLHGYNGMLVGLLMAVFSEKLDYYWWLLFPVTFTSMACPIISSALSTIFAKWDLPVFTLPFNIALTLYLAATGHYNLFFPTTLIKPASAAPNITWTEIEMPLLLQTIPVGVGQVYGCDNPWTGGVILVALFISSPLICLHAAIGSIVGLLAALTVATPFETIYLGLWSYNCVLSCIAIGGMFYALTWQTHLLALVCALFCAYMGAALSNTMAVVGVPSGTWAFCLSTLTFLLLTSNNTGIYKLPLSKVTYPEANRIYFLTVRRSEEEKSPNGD
Kind of data set: Transepithelial urea transport in MDCK cells stably expressing UT-A3. It counts as cell-based. To be noted: UTBinh-14 10 μM, forskolin. How it is done: UT-B selectivity and cytotoxicity were studied. Because of sequence similarities between UT-B and UT-A isoforms, UT-A inhibition was measured. Transepithelial urea transport was measured in MDCK cells stably expressing UT-A1, UT-A3, and UT-B. UT-A1 and UT-A3 are cAMP-regulated urea transporters expressed in kidney tubule epithelia (see, e.g., Frohlich et al., Am. J. Physiol. Cell Physiol. 291:C600-606 (2006); Tickle et al., Am. J. Physiol. Regul. Integr. Comp Physiol 0.297: R323-329 (2009); Stewart et al., Am. J. Physiol. Renal Physiol. 292:F1157-63 (2006)). MDCK cells were cultured on collagen-coated porous filters for measurement of urea accumulation in the apical solution following addition of urea to the basolateral solution.
cDNAs encoding mouse UT-A3 and UT-B were cloned into pcDNA3.1 and used to generate stably transfected MDCK cell lines. MDCK cells stably expressing rat UT-A1 (MDCK-UT-A1) (see, e.g., Frohlich et al., supra) were obtained as described (see, e.g., Levin et al., FASEB J., supra). Cells were cultured in DMEM containing 10% FBS and 0.5 mg/mL G418. […] Urea flux in the basolateral-to-apical direction across unstimulated and forskolin-stimulated cell layers was measured in response to a 15-mM urea gradient. […]

The nature of data set [1]: LC/MS analysis of compound in mouse kidney, blood and urine. As to the method: In some studies, mice were placed on low, normal or […] diets (4%, 20% or 40% casein, Harlan Labs.) for 1 week prior study of dDAVP effects. […] Urea concentration was determined by a colorimetric enzymatic assay as described above. Measurements were also done in the absence of dDAVP in which urine was collected during free access to food and water.
Kidneys were weighed, mixed with acetic acid (100 μL per 1 g tissue) and ethyl acetate (10 mL per 1 g tissue), and homogenized.

The target of another data set is T2, UT-B (Mus musculus, UniProt Q8VHL0).
T2 sequence (Q8VHL0 1-384): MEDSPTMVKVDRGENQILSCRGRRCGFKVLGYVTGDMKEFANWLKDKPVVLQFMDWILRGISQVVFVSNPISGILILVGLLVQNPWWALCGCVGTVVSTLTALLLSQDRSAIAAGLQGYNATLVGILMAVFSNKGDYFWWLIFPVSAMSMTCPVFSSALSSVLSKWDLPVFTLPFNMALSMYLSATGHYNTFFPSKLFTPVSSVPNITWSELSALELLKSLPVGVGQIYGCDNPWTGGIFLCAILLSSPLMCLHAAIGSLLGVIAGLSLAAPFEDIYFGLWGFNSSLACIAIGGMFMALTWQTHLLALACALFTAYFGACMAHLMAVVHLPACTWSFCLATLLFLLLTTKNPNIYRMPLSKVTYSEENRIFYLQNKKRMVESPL
Kind of data set: Erythrocyte lysis assay of UT-B inhibition. It is filed as cell-based. On the set-up: Screening was performed using mouse erythrocytes, which strongly express UT-B; endogenous in cells; host or cells: erythrocytes in whole blood of wild-type CD1 mice. The note with it: read-out: IC50. The essentials:
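Mouse erythrocytes (expressing UT-B and AQP1) subjected to an outward acetamide gradient; UT-B inhibition blocks acetamide efflux, causing swelling and lysis. Lysis quantified by absorbance at 710 nm within 5 min of hypo-osmolar shock.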

The next data set addresses T3, CFTR (Homo sapiens, UniProt P13569).
T3 construct: expressed in transfected cells
Description: CFTR chloride conductance by short-circuit current. It is filed as cell-based. To be noted: 10 μM, forskolin-activated.

Setting [2] is: for several hours following a single intraperitoneal administration.

T3 sequence (P13569 whole entry): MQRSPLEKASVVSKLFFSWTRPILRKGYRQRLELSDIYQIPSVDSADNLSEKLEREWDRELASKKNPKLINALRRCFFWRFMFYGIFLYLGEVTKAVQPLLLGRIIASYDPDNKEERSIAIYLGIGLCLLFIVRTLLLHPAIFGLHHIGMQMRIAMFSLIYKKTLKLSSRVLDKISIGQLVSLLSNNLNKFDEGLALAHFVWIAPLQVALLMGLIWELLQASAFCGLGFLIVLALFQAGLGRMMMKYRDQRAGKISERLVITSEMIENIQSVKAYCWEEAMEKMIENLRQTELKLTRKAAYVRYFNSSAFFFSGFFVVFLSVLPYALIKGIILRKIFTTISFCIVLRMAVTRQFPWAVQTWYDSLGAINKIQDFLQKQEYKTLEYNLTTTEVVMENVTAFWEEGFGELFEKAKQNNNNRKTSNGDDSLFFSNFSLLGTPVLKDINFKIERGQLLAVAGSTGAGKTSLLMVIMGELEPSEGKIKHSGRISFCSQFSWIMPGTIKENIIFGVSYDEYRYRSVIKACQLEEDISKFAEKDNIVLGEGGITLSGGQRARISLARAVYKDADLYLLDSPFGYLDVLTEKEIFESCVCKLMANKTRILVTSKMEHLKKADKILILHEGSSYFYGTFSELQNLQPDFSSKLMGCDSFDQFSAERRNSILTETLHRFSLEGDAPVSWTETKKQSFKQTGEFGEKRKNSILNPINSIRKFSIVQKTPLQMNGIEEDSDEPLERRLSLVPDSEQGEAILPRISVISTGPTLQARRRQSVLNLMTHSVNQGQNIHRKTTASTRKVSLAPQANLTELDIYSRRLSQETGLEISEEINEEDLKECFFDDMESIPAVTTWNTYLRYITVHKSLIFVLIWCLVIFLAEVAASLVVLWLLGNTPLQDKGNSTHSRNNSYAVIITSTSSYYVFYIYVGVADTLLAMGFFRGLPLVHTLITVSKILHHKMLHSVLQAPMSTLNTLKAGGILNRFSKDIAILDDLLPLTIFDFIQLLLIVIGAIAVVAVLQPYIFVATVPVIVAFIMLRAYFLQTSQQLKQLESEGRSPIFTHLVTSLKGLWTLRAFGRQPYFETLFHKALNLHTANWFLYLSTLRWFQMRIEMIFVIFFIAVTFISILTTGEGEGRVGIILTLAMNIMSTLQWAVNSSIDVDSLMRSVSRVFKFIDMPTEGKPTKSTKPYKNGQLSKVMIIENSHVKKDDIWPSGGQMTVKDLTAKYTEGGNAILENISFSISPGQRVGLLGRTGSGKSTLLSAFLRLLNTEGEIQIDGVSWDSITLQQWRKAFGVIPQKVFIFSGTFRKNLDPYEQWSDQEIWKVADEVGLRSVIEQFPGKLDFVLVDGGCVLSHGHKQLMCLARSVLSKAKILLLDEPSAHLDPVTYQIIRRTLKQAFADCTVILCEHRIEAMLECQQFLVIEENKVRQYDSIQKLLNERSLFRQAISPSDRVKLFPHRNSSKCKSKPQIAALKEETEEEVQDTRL

With `CCc1ccc(S(=O)(=O)c2nnn3c2nc(NCc2cccs2)c2sccc23)cc1` [UTBinh-14, [3-(4-Ethyl-benzenesulfonyl)-thieno[2,3-e][1,2,3]triazolo[1,5-a]pyrimidin-5-yl]-thiophen-2-ylmethylamine], the “inhibition of UT-A3 facilitated urea transport” value at UT-A3 was “little inhibition”. Also, the concentration in kidney result in data set [1] (for at least 4 h after single intraperitoneal 300 μg) was “greater than 1 μM”. In data set [1] (setting [2]), the concentration in blood result is “greater than 1 μM”. In data set [1] (setting [2]), the concentration in urine entry is given as “greater than 1 μM”. The “Peak concentration in kidney” value in data set [1] (single intraperitoneal 300 μg, normalized to kidney water volume) was “approximately 10 μM”. Besides, the IC50 at UT-B (Table 2, synthesized inhibitors, red blood cell lysis assay (n = 3), single-site saturation model) came out at 11 nM; on UT-B (erythrocyte lysis assay), 22 nM. Moreover, the “inhibition of CFTR chloride conductance” value against CFTR is “no significant inhibition”.

In general, IC50 refers to the point on the concentration scale where inhibition reaches its midpoint.
